Source: article PMC11915375 (ACS Infectious Diseases, 2025)
Read-outs that look alike come from different tables or passages of the source.

Experiments:
[1] = test system: Leishmania major amastigotes; details: read-out: L. maj EC50; 12a, 12b previously reported compounds; cited from earlier work
T. brucei [2] = details: read-out: T. brucei EC50; assay run at NYU; cited from earlier work
T. cruzi = details: read-out: T. cruzi EC50; different host cell line (NIH3T3), assay run at NYU; cited from earlier work
S. mansoni adult worms = experiment: S. mansoni adult worm phenotypic assay; type: cell-based, Schistosoma mansoni; details: scale 0-4
T. brucei [3] = experiment: T. brucei proliferation inhibition assay; type: cell-based, Trypanosoma brucei; details: Trypanosoma brucei, read-out: T. brucei EC50 ± S.D.
[4] = test system: Leishmania major amastigotes; experiment: Leishmania major amastigote assay; type: cell-based; details: Leishmania major, read-out: L. maj EC50
T. cruzi CA-I/72 = experiment: T. cruzi in vitro assay, C2C12 host cell; type: cell-based, Trypanosoma cruzi; details: Trypanosoma cruzi, C2C12, read-out: T. cruzi EC50
L. donovani = L. donovani in vitro assay; type: cell-based, Leishmania donovani; details: Leishmania donovani, read-out: L. don EC50, B10R host cell line

SMILES | EC50 [1] | EC50 (T. brucei [2]) | EC50 (T. cruzi) | Adult severity score (10 µM) 5 h (S. mansoni adult worms) | EC50 (T. brucei [3]) | EC50 [4] | EC50 (T. cruzi CA-I/72) | EC50 (L. donovani)
CN1CCN(S(=O)(=O)c2ccc(-c3ccc4nncc(Nc5ccc(OCc6cccc(F)c6)c(Cl)c5)c4c3)cc2)CC1 [Compound 12a, N-(3-Chloro-4-((3-fluorobenzyl)oxy)phenyl)-6-(4-((4-methylpiperazin-1-yl)sulfonyl)phenyl)cinnolin-4-amine] | 1.9 µM | 0.98 µM | > 50 µM |  |  |  |  | 
CN1CCN(S(=O)(=O)c2ccc(-c3ccc4c(Nc5ccc(OCc6cccc(F)c6)c(Cl)c5)cnnc4c3)cc2)CC1 [Compound 12b, N-(3-Chloro-4-((3-fluorobenzyl)oxy)phenyl)-7-(4-((4-methylpiperazin-1-yl)sulfonyl)phenyl)cinnolin-4-amine] | 2 µM | 1 µM | 3.1 µM |  |  |  |  | 
COc1ccc(Nc2cnnc3cc(-c4ccc(S(=O)(=O)N5CCN(C)CC5)cc4)ccc23)cc1Cl [Compound 17b, N-(3-Chloro-4-methoxyphenyl)-7-(4-((4-methylpiperazin-1-yl)sulfonyl)phenyl)cinnolin-4-amine] |  |  |  | 4 | 8.3 ± 0.35 µM | > 1.9 µM | > 10 µM | 
CN1CCCN(c2ncc(-c3ccc4nncc(Nc5ccc(OC(F)(F)F)cc5)c4c3)cn2)CC1 [Compound 31a, 6-(2-(4-Methyl-1,4-diazepan-1-yl)pyrimidin-5-yl)-N-(4-(trifluoromethoxy)phenyl)cinnolin-4-amine] |  |  |  |  | 0.25 ± 0.11 µM | > 20 µM | > 10 µM | > 10 µM
COc1cnc(Nc2cnnc3ccc(-c4cnc(N5CCCN(C)CC5)nc4)cc23)nc1 [Compound 32a, N-(5-Methoxypyrimidin-2-yl)-6-(2-(4-methyl-1,4-diazepan-1-yl)pyrimidin-5-yl)cinnolin-4-amine] |  |  |  |  | 2.9 ± 0.8 µM | > 23 µM | > 10 µM | 8 µM
CN1CCCN(S(=O)(=O)c2ccc(-c3ccc4nncc(Nc5ncc(Cl)cn5)c4c3)cc2)CC1 [Compound 33a, N-(5-Chloropyrimidin-2-yl)-6-(4-((4-methyl-1,4-diazepan-1-yl)sulfonyl)phenyl)cinnolin-4-amine] |  |  |  |  | 0.99 ± 0.29 µM | 17 µM | 5.3 µM | > 10 µM
CN1CCCN(S(=O)(=O)c2ccc(-c3ccc4nncc(Nc5ccc(OC(F)(F)F)cc5)c4c3)cc2)CC1 [Compound 34a, 6-(4-((4-Methyl-1,4-diazepan-1-yl)sulfonyl)phenyl)-N-(4-(trifluoromethoxy)phenyl)cinnolin-4-amine] |  |  |  |  | 0.65 ± 0.021 µM | > 18 µM | > 10 µM | 1.8 µM
